Tests used:
[1] = target: h20S proteasome, chymotrypsin-like activity (Homo sapiens, UniProt P28074); assay: Kinetic analysis of proteasome chymotrypsin-like activity with or without Aβ; assay type: biochemical; conditions: pH 7.8, 37°C; for Vmax: LLVY-AMC 0–200 µM, 40 ng h20S in 100 µL
[2] = tested on: 20S proteasome; conditions: localize inside the 20S subunit along the active proteolytic site; ref [14], [15]; cited from earlier work

| Vmax ([1]; 0 µM Aβ(1–42)) | Vmax ([1]; 1 µM oligomeric Aβ(1–42)) | Vmax ([1]; 5 µM oligomeric Aβ(1–42)) | Vmax, lower end over all Aβ concentrations ([1]; oligomeric Aβ(1–42) 0–5 µM, Table 1: 0 and 0.5 µM Aβ, LLVY-AMC) [µM/min] | Vmax, upper end over all Aβ concentrations ([1]; oligomeric Aβ(1–42) 0–5 µM, Table 1: 5 µM Aβ, LLVY-AMC) [µM/min] | Substance | effect on chymotrypsin-like activity of the proteasome [2] |
| --- | --- | --- | --- | --- | --- | --- |
| 3.1 ± 0.1 x10^−2µM/min | 3.5 ± 0.2 x10^−2µM/min | 3.7 ± 0.3 x10^−2µM/min | 0.031 ± 0.001 | 0.037 ± 0.003 | N-Succinyl-Leu-Leu-Val-Tyr-AMC [LLVY-AMC] | – |
| – | – | – | – | – | Aβ(1–40): Aβ(1–40) peptides | inhibit the chymotrypsin-like activity of the proteasome |

Source: publication PMC2992454 (ACS chemical neuroscience, 2010)
